Laboratory results published in patent US20150005288A1, “SUBSTITUTED PHENYLIMIDAZOPYRAZOLES AND USE THEREOF” (Bayer Intellectual Property GmbH, priority 2012, published 2015).

How the values were obtained:
endogenous Tie2 receptor = molecular target: T1, endogenous Tie2 receptor (Homo sapiens, UniProt Q02763); assay: Tie2-pTyr-ELISA: autophosphorylation of endogenous Tie2 receptor in HUVEC; format: cell-based; details: autophosphorylation elevated by sodium orthovanadate (4 mM), Tie2/phosphotyrosine sandwich ELISA, from 2-7 independent measurements
T1 construct: the endogenous Tie2 receptor; host or cells: HUVEC (human umbilical vein endothelial cells)
T1 sequence (Q02763 23-1124): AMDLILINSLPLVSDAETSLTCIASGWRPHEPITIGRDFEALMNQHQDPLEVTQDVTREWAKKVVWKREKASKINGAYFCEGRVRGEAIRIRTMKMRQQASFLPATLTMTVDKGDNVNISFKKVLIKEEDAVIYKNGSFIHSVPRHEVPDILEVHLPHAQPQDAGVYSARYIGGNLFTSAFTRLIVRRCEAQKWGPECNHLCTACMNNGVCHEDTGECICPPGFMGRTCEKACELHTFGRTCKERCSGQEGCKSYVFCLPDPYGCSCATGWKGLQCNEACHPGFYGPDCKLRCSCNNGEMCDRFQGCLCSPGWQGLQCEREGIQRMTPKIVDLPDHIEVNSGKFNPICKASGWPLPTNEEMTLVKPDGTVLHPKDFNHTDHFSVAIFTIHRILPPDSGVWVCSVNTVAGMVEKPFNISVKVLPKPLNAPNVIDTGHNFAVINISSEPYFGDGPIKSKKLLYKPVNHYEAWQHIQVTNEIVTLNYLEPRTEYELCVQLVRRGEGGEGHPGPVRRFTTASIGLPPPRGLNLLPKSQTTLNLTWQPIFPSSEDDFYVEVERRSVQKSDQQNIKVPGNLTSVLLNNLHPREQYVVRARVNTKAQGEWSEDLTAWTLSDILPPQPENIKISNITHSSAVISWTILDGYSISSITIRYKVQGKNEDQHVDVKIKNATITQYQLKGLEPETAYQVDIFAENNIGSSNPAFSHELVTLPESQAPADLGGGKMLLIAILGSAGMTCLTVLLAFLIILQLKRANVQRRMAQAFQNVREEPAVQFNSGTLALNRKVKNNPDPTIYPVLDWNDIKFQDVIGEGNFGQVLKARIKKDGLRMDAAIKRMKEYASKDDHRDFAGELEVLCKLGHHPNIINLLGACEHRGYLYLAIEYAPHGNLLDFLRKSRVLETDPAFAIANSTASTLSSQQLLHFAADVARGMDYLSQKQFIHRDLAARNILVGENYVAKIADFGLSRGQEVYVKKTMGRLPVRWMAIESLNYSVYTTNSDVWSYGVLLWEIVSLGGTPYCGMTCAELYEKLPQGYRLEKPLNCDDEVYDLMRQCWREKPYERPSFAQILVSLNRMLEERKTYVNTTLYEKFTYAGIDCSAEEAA
Experimental: The cellular activity of the compounds according to the invention as Tie2 kinase inhibitors was determined in human endothelial cells (HUVEC) by measuring the inhibition of the autophosphorylation, elevated by treatment with sodium orthovanadate, of the endogenous Tie2 receptor by means of a Tie2/phosphotyrosine sandwich ELISA.
Human endothelial cells (human umbilical vein endothelial cells, HUVEC) were obtained from Cellsystems (FC-0003), cultured in Vasculife VEGF complete medium (Cellsystems, LL-1020) with 2% foetal calf serum (FCS) at 37° C./5% CO2 and used for Tie2-ELISA measurements up to passage 8.
HUVEC were plated in a culture volume of 100 μl of Vasculife VEGF complete medium at a cell density of 30 000 cells per well in transparent collagen-coated 96-well cell culture plates (Falcon, #353075) and incubated in an incubation cabinet at 37° C./5% CO2 overnight. The test substances dissolved in DMSO were used to prepare in each case one dilution series in Vasculife VEGF low-serum medium [basal medium with LifeFactors (Cellsystems, LM-0002), without FCS, with 0.1% BSA] without sodium orthovanadate and one dilution series in Vasculife VEGF low-serum-medium with 8 mM sodium orthovanadate in the desired concentrations in the range from 10 pM to 10 μM, the final DMSO concentration being 1%. After removal of the complete medium, 100 μl per well of the dilute substances in low-serum medium without sodium orthovanadate were pipetted onto the cells, and the plates were incubated in an incubation cabinet at 37° C./5% CO2 for 10 min. A further 100 μl of the same substance dilution in low-serum medium with 8 mM sodium orthovanadate were then pipetted into the respective well and the cells were incubated in a volume of now 200 μl in the presence of 4 mM sodium orthovanadate at the desired substance concentration in an incubation cabinet at 37° C./5% CO2 for a further 20 min. The cell supernatant of the plates was then removed and the cells were washed once with 250 μl per well of cold PBS which contained 4 mM sodium orthovanadate. 120 μl of Duschl lysis buffer [50 mM HEPES pH 7.2, 150 mM NaCl, 1 mM MgCl2, 10% glycerol, 1.5% Triton X-100, 4 mM sodium orthovanadate, 250 μl S-PIC phosphatase inhibitor cocktail 2 (Sigma, P5726) and 1 tablet of Complete proteinase inhibitor mixture (Roche, #1836145) per 10 ml] were then added to the cells in each well. The plates were shaken briefly and then incubated on ice for 20 min, and the lysates in the cell culture plates were then frozen at −80° C. for at least 30 min.
For measuring the autophosphorylation of the endogenous Tie2 receptor in the cell lysates prepared, a self-prepared anti-Tie2 antibody directed against the N-terminus of the Tie-2 receptor (1.09 mg/ml) and an HRP-coupled anti-phosphotyrosine antibody (Sigma, A4595, clone pY-20) were used. White 96-well ELISA plates (Lumitrac600, Greiner, #655074) were incubated with 100 μl per well of a 1:1000 dilution of the anti-Tie2 antibody in coating buffer [15 mM Na2CO3, 35 mM NaHCO3, pH 9.6] with shaking at 4° C. overnight. The coated ELISA plates were washed three times with 250 μl PBST buffer [0.1% Tween-20 in PBS], the wells were blocked with 250 μl 3% BSA in PBST buffer with shaking at RT for 1-6 h and washed three more times with 250 μl PBST buffer. From the cell lysate plates thawed in the fridge, in each case 100 μl of lysate were transferred into the coated wells of the ELISA plates, and the plates were incubated with shaking at 4° C. overnight. The plates were washed three times with in each case 250 μl of PBST buffer, and 100 μl of a 1:5000 dilution of the anti-phosphotyrosine HRP antibody in 3% Prionex (Calbiochem, #529600) in PBST were then pipetted into each well and the plates were incubated with shaking and protected from light at 4° C. overnight. […]

[1] = molecular target: T2, intracellular domain of human Tie2 (GST fusion protein) (Homo sapiens, UniProt Q02763); assay: Tie2 kinase assay (Tie2-TR-FRET); format: biochemical; details: ATP concentration 1 mM, in some cases means of several independent determinations
T2 construct: intracellular domain of human Tie2 (amino acids 776-1124); made in house; host or cells: Baculovirus-infected insect cells (Hi5)
T2 sequence (Q02763 776-1124): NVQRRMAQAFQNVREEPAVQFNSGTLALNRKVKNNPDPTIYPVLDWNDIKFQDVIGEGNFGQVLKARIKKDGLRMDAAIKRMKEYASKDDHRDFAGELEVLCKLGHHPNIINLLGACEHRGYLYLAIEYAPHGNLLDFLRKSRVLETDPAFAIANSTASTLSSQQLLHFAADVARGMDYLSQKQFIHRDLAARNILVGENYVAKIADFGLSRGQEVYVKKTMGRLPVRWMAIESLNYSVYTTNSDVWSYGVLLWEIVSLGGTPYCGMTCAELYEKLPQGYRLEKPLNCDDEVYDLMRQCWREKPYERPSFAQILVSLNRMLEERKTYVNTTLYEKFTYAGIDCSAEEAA
Procedure, shortened: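 GST fusion of human Tie2 intracellular domain (aa 776-1124, Hi5-expressed), ~30 ng/ml, pre-incubated 15 min with compound, then 1 mM ATP and 1 μM biotinylated peptide, 60 min at 22 °C, pH 7. TR-FRET (Eu anti-phosphotyrosine/streptavidin-XL665, 665/620 nm ratio). […] 20 μM–0.073 nM in duplicate; IC50 by 4-parameter fit.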

Cc1ccc(NC(=O)c2cc(C#N)cc(S(F)(F)(F)(F)F)c2)cc1-n1cc(C)n2nc(-c3cn[nH]c3)cc12 [Example 12, 3-Cyano-N-{4-methyl-3-[3-methyl-6-(1H-pyrazol-4-yl)-1H-imidazo[1,2-b]pyrazol-1-yl]phenyl}-5-(pentafluoro-λ^6-sulphanyl)benzamide]
IC50 (endogenous Tie2 receptor): 4.7 nM
IC50 [1]: 0.7 nM

Cc1cc(C)c(-n2ccn3nc(-c4cccnc4)cc23)cc1NC(=O)c1cc(F)cc(S(F)(F)(F)(F)F)c1 [Example 107, N-{2,4-Dimethyl-5-[6-(pyridin-3-yl)-1H-imidazo[1,2-b]pyrazol-1-yl]phenyl}-3-fluoro-5-(pentafluoro-λ^6-sulphanyl)benzamide]
IC50 (endogenous Tie2 receptor): 0.9 nM
IC50 [1]: 0.6 nM

Cc1cc(C)c(-n2ccn3nc(-c4cccnc4)cc23)cc1NC(=O)c1cccc(S(F)(F)(F)(F)F)c1 [Example 73, N-{2,4-Dimethyl-5-[6-(pyridin-3-yl)-1H-imidazo[1,2-b]pyrazol-1-yl]phenyl}-3-(pentafluoro-λ^6-sulphanyl)benzamide]
IC50 (endogenous Tie2 receptor): 0.8 nM
IC50 [1]: 0.3 nM

Cc1ccc(NC(=O)c2cc(N3CCN(C)CC3)cc(C(C)(C)C)c2)cc1-n1ccn2nc(-c3cccnc3)cc12 [Example 48, 3-tert-Butyl-5-(4-methylpiperazin-1-yl)-N-{4-methyl-3-[6-(pyridin-3-yl)-1H-imidazo[1,2-b]-pyrazol-1-yl]phenyl}benzamide]
IC50 (endogenous Tie2 receptor): 6.4 nM
IC50 [1]: 0.3 nM

Cc1ccc(NC(=O)c2cc(CN3CCCC3)cc(C(C)(C)C)c2)cc1-n1ccn2nc(-c3cccnc3)cc12 [Example 51, 3-tert-Butyl-N-{4-methyl-3-[6-(pyridin-3-yl)-1H-imidazo[1,2-b]pyrazol-1-yl]phenyl}-5-(pyrrolidin-1-ylmethyl)benzamide]
IC50 (endogenous Tie2 receptor): 8.8 nM
IC50 [1]: 0.7 nM

CNc1cc(C(=O)Nc2ccc(C)c(-n3ccn4nc(-c5cccnc5)cc34)c2)cc(C(C)(C)C)n1 [Example 66, 2-tert-Butyl-6-(methylamino)-N-{4-methyl-3-[6-(pyridin-3-yl)-1H-imidazo[1,2-b]pyrazol-1-yl]-phenyl}isonicotinamide]
IC50 (endogenous Tie2 receptor): 46 nM
IC50 [1]: 7.9 nM

Cc1ccc(NC(=O)c2cc(F)cc(S(F)(F)(F)(F)F)c2)cc1-n1ccn2nc(-c3cccnc3)cc12 [Example 88, 3-Fluoro-N-{4-methyl-3-[6-(pyridin-3-yl)-1H-imidazo[1,2-b]pyrazol-1-yl]phenyl}-5-(pentafluoro-λ^6-sulphanyl)benzamide]
IC50 (endogenous Tie2 receptor): 41 nM
IC50 [1]: 23 nM

Cc1cc(C)c(-n2ccn3nc(-c4cccnc4)cc23)cc1NC(=O)c1cc(C#N)cc(S(F)(F)(F)(F)F)c1 [Example 74, 3-Cyano-N-{2,4-dimethyl-5-[6-(pyridin-3-yl)-1H-imidazo[1,2-b]pyrazol-1-yl]phenyl}-5-(pentafluoro-λ^6-sulphanyl)benzamide]
IC50 (endogenous Tie2 receptor): 0.6 nM
IC50 [1]: 0.5 nM

Cc1ccc(NC(=O)c2cc(N3CCOCC3)cc(S(F)(F)(F)(F)F)c2)cc1-n1ccn2nc(-c3cn[nH]c3)cc12 [Example 3, N-{4-Methyl-3-[6-(1H-pyrazol-4-yl)-1H-imidazo[1,2-b]pyrazol-1-yl]phenyl}-3-(morpholin-4-yl)-5-(pentafluoro-λ^6-sulphanyl)benzamide]
IC50 (endogenous Tie2 receptor): 3.4 nM
IC50 [1]: 1.2 nM

Cc1ccc(NC(=O)c2cc(C#N)cc(S(F)(F)(F)(F)F)c2)cc1-n1ccn2nc(-c3cnccn3)cc12 [Example 162, 3-Cyano-N-{4-methyl-3-[6-(pyrazin-2-yl)-1H-imidazo[1,2-b]pyrazol-1-yl]phenyl}-5-(pentafluoro-λ^6-sulphanyl)benzamide]
IC50 (endogenous Tie2 receptor): 8.9 nM
IC50 [1]: 28 nM

Cc1ccc(NC(=O)c2cc(-n3ccnc3C)cc(C(F)(F)F)c2)cc1-n1ccn2nc(-c3cccnc3)cc12 [Example 40, 3-(2-Methyl-1H-imidazol-1-yl)-N-{4-methyl-3-[6-(pyridin-3-yl)-1H-imidazo[1,2-b]pyrazol-1-yl]-phenyl}-5-(trifluoromethyl)benzamide]
IC50 (endogenous Tie2 receptor): 2.3 nM
IC50 [1]: 0.5 nM

Cc1ccc(-n2ccn3nc(-c4cccnc4)cc23)cc1NC(=O)c1cc(C#N)cc(S(F)(F)(F)(F)F)c1 [Example 77]
IC50 (endogenous Tie2 receptor): 8.8 nM
IC50 [1]: 13 nM

Cc1ccc(NC(=O)c2cc(-n3ccnc3C)cc(S(F)(F)(F)(F)F)c2)cc1-n1ccn2nc(-c3cccnc3)cc12 [Example 16, 3-(2-Methyl-1H-imidazol-1-yl)-N-{4-methyl-3-[6-(pyridin-3-yl)-1H-imidazo[1,2-b]pyrazol-1-yl]-phenyl}-5-(pentafluoro-λ^6-sulphanyl)benzamide]
IC50 (endogenous Tie2 receptor): 3.2 nM
IC50 [1]: 0.7 nM

Cc1ccc(NC(=O)c2cc(N3CCN(C)CC3)cc(S(F)(F)(F)(F)F)c2)cc1-n1ccn2nc(-c3cccnc3)cc12 [Example 18, 3-(4-Methylpiperazin-1-yl)-N-{4-methyl-3-[6-(pyridin-3-yl)-1H-imidazo[1,2-b]pyrazol-1-yl]-phenyl}-5-(pentafluoro-λ^6-sulphanyl)benzamide]
IC50 (endogenous Tie2 receptor): 11 nM
IC50 [1]: 0.7 nM

Cc1ccc(NC(=O)c2cc(C(C)(C)O)cc(S(F)(F)(F)(F)F)c2)cc1-n1ccn2nc(-c3cccnc3)cc12 [Example 32, 3-(2-Hydroxypropan-2-yl)-N-{4-methyl-3 [6-(pyridin-3-yl)-1H-imidazo[1,2-b]pyrazol-1-yl]-phenyl}-5-(pentafluoro-λ^6-sulphanyl)benzamide]
IC50 (endogenous Tie2 receptor): 2.1 nM
IC50 [1]: 0.4 nM

Cc1cc(NC(=O)c2cc(C#N)cc(S(F)(F)(F)(F)F)c2)cc(-n2ccn3nc(-c4cccnc4)cc23)c1C [Example 102, 3-Cyano-N-{3,4-dimethyl-5-[6-(pyridin-3-yl)-1H-imidazo[1,2-b]pyrazol-1-yl]phenyl}-5-(pentafluoro-λ^6-sulphanyl)benzamide]
IC50 (endogenous Tie2 receptor): 18 nM
IC50 [1]: 19 nM

Cc1ccc(NC(=O)c2cc(-n3ccnc3C)cc(C(F)(F)F)c2)cc1-n1ccn2nc(-c3cn[nH]c3)cc12 [Example 6, 3-(2-Methyl-1H-imidazol-1-yl)-N-{4-methyl-3-[6-(1H-pyrazol-4-yl)-1H-imidazo[1,2-b]pyrazol-1-yl]phenyl}-5-(trifluoromethyl)benzamide]
IC50 (endogenous Tie2 receptor): 17 nM
IC50 [1]: 5 nM

Cc1ccc(NC(=O)c2cc(N3CCN(C)CC3)cc(S(F)(F)(F)(F)F)c2)cc1-n1ccn2nc(-c3cn[nH]c3)cc12 [Example 2, 3-(4-Methylpiperazin-1-yl)-N-{4-methyl-3-[6-(1H-pyrazol-4-yl)-1H-imidazo[1,2-b]pyrazol-1-yl]-phenyl}-5-(pentafluoro-λ^6-sulphanyl)benzamide]
IC50 (endogenous Tie2 receptor): 7.6 nM
IC50 [1]: 6 nM

Cc1cc(F)c(NC(=O)c2cc(C#N)cc(S(F)(F)(F)(F)F)c2)cc1-n1ccn2nc(-c3cccnc3)cc12 [Example 75, 3-Cyano-N-{2-fluoro-4-methyl-5-[6-(pyridin-3-yl)-1H-imidazo[1,2-b]pyrazol-1-yl]phenyl}-5-(pentafluoro-λ^6-sulphanyl)benzamide]
IC50 (endogenous Tie2 receptor): 1.7 nM
IC50 [1]: 0.5 nM
